Columns and labels:
[1] = test system: NIH-3T3 TrkB-expressing cell line; test: CellTox Green cytotoxicity assay in NIH-3T3 cells stable transfected with TrkB under serum deprivation; format: cell-based; conditions: compound 1 μM, 24 h, after 24 h serum starvation; BDNF 500 ng/mL as control
Protocol: (§1) We tested compounds on three cellular systems, primary cortical astrocytes from 2-day-old mice (as a natively TrkB-expressing neuronal population), and NIH-3T3 fibroblasts stable transfected with TrkB and NIH-3T3 naïve cells. Cells were grown with high-glucose DMEM medium supplemented with 10% fetal bovine serum (FBS), 100 μg/mL streptomycin, and 100 units/mL penicillin at 37°C in a humidified 5% CO2 atmosphere. Phosphorylation results presented here are in primary astrocytes, and cell toxicity assay results are in NIH-3T3 stable transfected cells with TrkB.
NIH-3T3 stable transfected cells with TrkB were plated in 96-well plates at a density of 10,000 cells/well, before carrying out serum starvation for 24 h. Cells were then treated for 24 h with either BDNF at 500 ng/mL (control) or the compounds at 1 μM.
(§2) For the cell toxicity assay, we used CellTox™ Green Dye (2,000 × , Promega) for the visualization of dead cells and Hoechst 33,342 solution (10,000 × ) for total cells. A ZEISS Axio Vert.A1 microscope was used for image capture, and the ImageJ software (https://imagej.nih.gov/ij/) was used for analysis. The number of CellTox positive cells was normalized against the total number of cells observed in each image.
The NIH-3T3 TrkB cell line, which is stable and transfected to specifically express the TrkB receptor, was used for the screening of the new compounds for their ability to protect cells from serum deprivation-induced apoptosis through the activation of the TrkB receptor. Cell death was induced by serum deprivation for 24 h and then BDNF (500 ng/mL), the native neurotrophin ligand of the TrkB receptor, or compounds ENT-A007, ENT-A009, ENTA025, ENT-A026, ENT-A033, ENT-A034, ENT-A035, ENT-A036, ENT-A037, ENT-A046, ENT-A047, ENT-A055, and ENT-A056 (1 μM) were added to the media for 24 h.

TrkB = target: T1, TrkB (Mus musculus, UniProt P15209); test: TrkB phosphorylation assay in primary astrocytes (Western blot); format: cell-based; conditions: compound 1 μM, 20 min, after 6 h serum starvation, BDNF 500 ng/mL as control
T1 construct: primary cortical astrocytes from 2-day-old mice (as a natively TrkB-expressing neuronal population); endogenous in cells; host or cells: primary cortical astrocytes from C57B/6 mouse pups (P2)
Protocol: as §1
Cells were plated in 12 well plates, at a density of 100,000 cells per well, with 6 h of serum deprivation carried out on the following day. To assess the effect of compounds on TrkB phosphorylation, 20-min treatments were applied, using either BDNF at 500 ng/mL (Peprotech 450-02) (positive control) or compounds at 1 μM.
Cell lysis for 10 min was carried out on ice using the Pierce IP Lysis Buffer by Thermo Scientific and a phospho-protease inhibitor cocktail by Millipore. After adding loading buffer (5 × Laemni), 25 μg from each protein sample were incubated for 5 min at 95°C and subjected to SDS-PAGE. Proteins were transferred to a nitrocellulose membrane at 350 mA for 2 h. Membrane blocking was performed using 5% bovine serum albumin (BSA) at room temperature for 1 h, before adding the primary antibodies to the blocking solution at 4°C overnight. HRP-conjugated secondary antibodies were used for the detection of chemiluminescence with ECL solution. Primary antibodies: Phospho-TrkB (Tyr816) Millipore # ABN1381, and Anti-TrkB Abcam #ab33655.
Mixed glial cultures were isolated from the cortex of C57B/6 pups at post-natal day 2 (P2). Cells were plated in a medium containing high-glucose DMEM, 200 U/mL penicillin, 200 μg/mL streptomycin, and 10% fetal bovine serum (FBS). When cells reach 100% confluency (7–8 days), the anti-mitotic agent Ara-C was added in the media at a final concentration of 10 μM, for 3 to 4 days to target the highly proliferative microglial cells. Ara-C was removed, and primary astrocytes (97% purity) were cultured at 5% CO2 and 37°C.
Cells were plated at 70–80% confluency. The next day, they were deprived of serum for 6 h and subsequently treated with 500 ng/mL BDNF or 1 μM of compounds for 20 min. Cells were then lysed in Pierce™ IP Lysis Buffer (87788, Thermo Fischer Scientific, Rockford, USA), containing proteases (539138, Calbiochem, Darmstadt, Germany), and phosphatase inhibitors (524629, Calbiochem, Darmstadt, Germany). Lysates were then suspended in an SDS loading buffer and subjected to Western blot against phosphorylated TrkB (1:1,000, ABN1381, Sigma-Aldrich, St. Louis, MO, USA) and total TrkB (1:1,000, 07-225-I, Sigma-Aldrich, St. Louis, MO, USA).

CYP2C9 = target: T2, CYP2C9 (Homo sapiens, UniProt P11712); test: Isozyme-specific CYP450 inhibition, CYP2C9; format: in vitro ADME; conditions: 1 μM, 60 min, recombinant human CYP450 (Baculosomes)
T2 construct: purchased Thermo Fisher Scientific; host or cells: Baculosomes
Protocol: Human cytochrome P450 (CYP450) isoenzymes were expressed in Baculosomes®, purchased from Thermo Fisher Scientific (Waltham, MA, USA). All reagents were handled and prepared according to the manufacturer's protocol. Test compounds were assessed at 1 μM for their effects on CYP1A2, CYP2A6, CYP2C9, CYP2C19, CYP2D6, and CYP3A4. Approximately 1 μM was selected based on our ADMET standard operating procedures and protocols also published previously (Rogdakis et al., [2022]; Yilmaz et al., [2022]). CYP450-enzymatic activity was determined based on the kinetic model for each CYP450 isoform (Cohen et al., [2003]; Veith et al., [2009]). Reactions took place in triplicates at 20°C. For this, NADP^+ (10 mM in 100 mM potassium phosphate, pH 8.0) was converted into NADPH by the regeneration system present (glucose-6-phosphate at 333 mM and glucose-6-phosphate-dehydrogenase at 30 U/mL in 100 mM potassium phosphate, pH 8.0). Following the addition of the fluorescent substrate, signal monitoring over time took place immediately (<2 min) at suitable excitation and emission wavelengths (Agilent BioTek Lionheart FX). CYP450 inhibition (%) was determined based on the reaction rates (fluorescence intensity changes per unit time). In total, n = 60 measurements […] were acquired (t = 60 min).
% Inhibition=(1-X/A)×100%
X is the rate observed in the presence of the test compound.
A is the rate observed in the presence of the negative (solvent, DMSO) control.

PC12 cells = test: CellTox assay, survival of PC12 cells under serum deprivation; format: cell-based; conditions: compound 500 nM, 24 h, after 4 h serum starvation; NGF 100 ng/mL as control (Figure 9)
Protocol: PC12 cells were obtained from LGC Promochem and cultured under specified conditions. Cells were grown in DMEM medium (Thermo Fischer Scientific, cat# 10566016) containing 10% horse serum (Thermo Fischer Scientific, cat# 16050122), 5% fetal bovine serum (Thermo Fischer Scientific, cat# 10270106), 100 units/mL penicillin, and 0.1 mg/mL streptomycin (Thermo Fischer Scientific, cat# 15140122) at 5% CO2 and 37°C. Cells were used between passages 5 and 20.
CellTox assay (G8742, Promega, Leiden, Belgium) was used to assess the survival of PC12 cells under serum deprivation conditions. PC12 cells were plated in 96-well plates, starved from serum for 4 h, and subsequently treated with NGF (100 ng/mL) or compound (500 nM) for 24 h. CellTox assay reagents and Hoescht (1:10,000, H3570, Invitrogen, Massachusetts, USA) were then added to each well for 30 min, and then, cells were imaged with a Zeiss AXIO Vert A1 fluorescent microscope. CellTox positive cells were normalized to the total number of cells for each image.
Initially, we tested compounds ENT-A002, ENT-A007, ENT-A009, ENTA025, ENT-A026, ENT-A033, ENT-A034, ENT-A035, ENT-A036, ENT-A037, ENT-A046, ENT-A047, ENT-A055, and ENT-A056 for their ability to protect PC12 cells from serum deprivation-induced cell death as well as for their ability to activate TrkA downstream pro-survival signaling kinases Akt and Erk1/2 (Figures 9A–C). We opted to employ PC12 cells, which express receptors TrkA and p75 and have been routinely used for investigating NGF-TrkA signaling. PC12 cells were subjected to a period of nutrient deprivation (without fetal bovine serum and horse serum in their culture medium) for 4 h. Following this, NGF (100 ng/mL) or one of the compounds (500 nM or 1 μM) was administered and allowed to interact with the cells for 24 h. Following that, CellTox and Hoescht dyes were added and cells were imaged to assess cell death. Control cases involved cells cultured in full medium (serum), cells under starvation conditions (serum-free), and cells under starvation conditions treated with DMSO (SF+DMSO).

NIH3T3 naive cells = test: CellTox assay in NIH3T3 naive cells under serum deprivation; format: cell-based; conditions: compound 1 μM or BDNF 500 ng/mL, 24 h, after 18 h nutrient deprivation
Protocol: as §1, §2
These cells were treated with the compounds, or BDNF, for 24 h under starvation conditions. Control conditions included cells cultured with serum, serum-free conditions, and serum-free conditions supplemented with DMSO. The cells were subjected to a period of 18 h of nutrient deprivation before the treatments. […] Therefore, we infer that the involvement of the TrkB receptor is indeed essential for the cell-protective effects of ENT-A076, ENT-A087, and ENT-A088 (Figures 14A, B).

[2] = Metabolic stability in pooled human liver microsomes; format: in vitro ADME; conditions: 1 μM; for residual of time zero: pooled human liver microsomes 0.5 mg/mL, t = 60 min, NADPH; for parent structure loss (depletion) class: pooled human liver microsomes, 60 min
Protocol: For metabolic stability assessment, pooled human liver microsomes were employed at 0.5 mg/mL. Incubation conditions were optimized to ensure linear metabolite formation with respect to protein concentration and reaction time. All test compounds were assessed at 1 μM based on our ADMET standard operating procedures and protocols, also published previously (1 μM was selected based on our ADMET standard operating procedures and protocols also published previously) (Rogdakis et al., [2022]; Yilmaz et al., [2022]). Approximately 1 mM of NADPH served as a cofactor. Reactions took place in triplicates at 37°C. Negative and positive controls (low vs. rapid clearance) were included for low vs. rapid clearance. After 60 min, reactions were terminated.
Parent structure loss is classified as very slow (<5%), slow (5–19%), moderate (20–50%), fast (50–80%), or very fast (>80%). Such categories have been defined according to set criteria, namely, high metabolism (t1/2 value of <30 min), moderate metabolism (30 min <t1/2 value of <60 min), and low metabolism (t1/2 value of >60 min) (EMA, [2012], [2013]; FDA, [2020]).

T1 sequence (P15209 32-821): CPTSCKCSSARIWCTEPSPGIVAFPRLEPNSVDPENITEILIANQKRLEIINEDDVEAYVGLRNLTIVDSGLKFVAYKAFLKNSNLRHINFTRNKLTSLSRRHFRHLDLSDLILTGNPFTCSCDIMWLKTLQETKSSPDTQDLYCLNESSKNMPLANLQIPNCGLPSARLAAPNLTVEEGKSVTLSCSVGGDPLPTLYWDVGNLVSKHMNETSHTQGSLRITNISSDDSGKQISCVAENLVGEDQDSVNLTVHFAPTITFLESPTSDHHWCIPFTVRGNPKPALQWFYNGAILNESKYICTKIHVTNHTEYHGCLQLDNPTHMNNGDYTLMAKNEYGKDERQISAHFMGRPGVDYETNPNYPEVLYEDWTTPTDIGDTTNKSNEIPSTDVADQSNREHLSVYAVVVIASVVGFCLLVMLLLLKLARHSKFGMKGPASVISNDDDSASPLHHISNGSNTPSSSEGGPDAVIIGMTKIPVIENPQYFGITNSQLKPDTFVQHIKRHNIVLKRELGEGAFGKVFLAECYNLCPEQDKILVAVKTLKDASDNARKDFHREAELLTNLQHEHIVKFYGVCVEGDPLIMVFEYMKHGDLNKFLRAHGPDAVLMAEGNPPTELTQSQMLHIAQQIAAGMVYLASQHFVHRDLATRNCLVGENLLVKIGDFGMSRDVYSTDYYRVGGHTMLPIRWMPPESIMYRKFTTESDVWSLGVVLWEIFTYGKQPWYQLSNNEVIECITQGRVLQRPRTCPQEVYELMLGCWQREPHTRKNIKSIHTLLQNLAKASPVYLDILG
T2 sequence (P11712 whole entry): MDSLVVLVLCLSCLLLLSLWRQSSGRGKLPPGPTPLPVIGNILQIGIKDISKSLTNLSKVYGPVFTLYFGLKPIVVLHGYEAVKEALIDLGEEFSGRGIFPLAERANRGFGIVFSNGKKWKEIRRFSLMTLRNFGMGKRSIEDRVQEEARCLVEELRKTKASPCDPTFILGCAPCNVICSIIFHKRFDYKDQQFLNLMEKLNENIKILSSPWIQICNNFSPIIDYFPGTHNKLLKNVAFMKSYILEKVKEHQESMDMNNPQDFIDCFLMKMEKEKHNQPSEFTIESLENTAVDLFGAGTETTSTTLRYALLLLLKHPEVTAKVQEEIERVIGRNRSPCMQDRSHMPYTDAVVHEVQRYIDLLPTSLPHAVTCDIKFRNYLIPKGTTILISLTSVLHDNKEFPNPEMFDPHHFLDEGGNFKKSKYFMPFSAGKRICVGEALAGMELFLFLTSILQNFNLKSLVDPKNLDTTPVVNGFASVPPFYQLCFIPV

Molecule	protection of NIH-3T3-TrkB cells from serum deprivation-induced cell death (CellTox) [1]	phosphorylation levels of the TrkB receptor (TrkB)	inhibition for CYP2C9 (CYP2C9)	protection of PC12 cells from serum deprivation-induced cell death (CellTox) (PC12 cells)	rescue of NIH3T3 naive cells (no neurotrophin receptors) from serum deprivation-induced cell death (CellTox) (NIH3T3 naive cells)	residual of time zero [2] [%]	parent structure loss (depletion) class [2]
CCOC(=O)C=CC1=CCC2(CCC3C4CC=C5CC(O)CCC5(C)C4CCC32C)OC1 [ENT-A007, Ethyl (E)-(3S,17R)-3-hydroxy-dihydrospiro[5-androstene-17,2′-pyran]-5′-yl-acrylate]	significantly reduce cell death levels compared to the serum-free control, comparable to the BDNF action	only ENT-A009 and ENT-A055 successfully increased phosphorylation levels of the TrkB receptor	moderate-to-strong inhibition	–	–	–	–
CN(C)Cc1cn(CC2=CC[C@@]3(CC[C@H]4[C@@H]5CC=C6C[C@@H](O)CC[C@]6(C)[C@H]5CC[C@@]43C)OC2)nn1 [ENT-A046, (3S,17R)-5′-[(4-((dimethylamino)methyl)-1H-1,2,3-triazol-1-yl)methyl]-3′,6′-dihydrospiro[5-androstene-17,2′-pyran]-3-ol]	significantly reduce cell death levels compared to the serum-free control, comparable to the BDNF action	only ENT-A009 and ENT-A055 successfully increased phosphorylation levels of the TrkB receptor	–	without showing any antiapoptotic activity in PC12 cells	–	–	–
C[C@]12CC[C@H](O)CC1=CC[C@@H]1[C@@H]2CC[C@@]2(C)[C@H]1CCC21CC(=O)C1 [ENT-A076, (3S)-3-hydroxy-spiro[5-androsten-17-cyclobutan]-3′-one]	demonstrated the ability to promote cell survival during serum starvation as well as BDNF	–	–	–	neither the compounds nor BDNF were able to rescue the cells from cell death	95	slow (slow (5–19%))
COC(=O)C=C1CC2(CC[C@H]3[C@@H]4CC=C5C[C@@H](O)CC[C@]5(C)[C@H]4CC[C@@]32C)C1 (stereo partly drawn) [ENT-A087]	demonstrated the ability to promote cell survival during serum starvation as well as BDNF	–	–	–	neither the compounds nor BDNF were able to rescue the cells from cell death	> 95	very slow (very slow (<5%))
brain-derived neurotrophic factor (protein, UniProt P23560 19-247, looked up, native neurotrophin ligand of the TrkB receptor, positive control at 500 ng/mL) Neurotrophic factor BDNF …: APMKEANIRGQGGLAYPGVRTHGTLESVNGPKAGSRGLTSLADTFEHVIEELLDEDQKVRPNEENNKDADLYTSRVMLSSQVPLEPPLLFLLEEYKNYLDAANMSMRVRRHSDPARRGELSVCDSISEWVTAADKKTAVDMSGGTVTVLEKVPVSKGQLKQYFYETKCNPMGYTKEGCRGIDKRHWNSQCRTTQSYVRALTMDSKKRIGWRFIRIDTSCVCTLTIKRGR	–	–	–	–	neither the compounds nor BDNF were able to rescue the cells from cell death	–	–
